ChEMBL document CHEMBL1158592, “Synthesis and biological evaluation of isoflavone fatty acid esters with potential weight loss and hypolipidemic activities” (Bioorg Med Chem, 2010)
Activity calls are given as the source filed them. No cut-off for these calls is given here.

Columns and labels:
3T3-L1 [1] = assay: Increase in PPARgamma mRNA levels in mouse 3T3L1 cells at 100 umol/L by RT-PCR; assay type: functional, cell-based
Rattus norvegicus [2] = assay: Antiobese activity in high fat diet-fed Sprague-Dawley rat assessed as plasma triglyceride level at 50 mg/kg, ig administered QD for 30 days (reference value: 1.25+/-0.23 mmol/L); assay type: functional; conditions: route intragastric
Rattus norvegicus [3] = assay: Antiobese activity in high fat diet-fed Sprague-Dawley rat assessed as plasma free fatty acid level at 50 mg/kg, ig administered QD for 30 days (reference value: 785.6+/-175.8 umol/L); assay type: functional; conditions: route intragastric
Rattus norvegicus [4] = assay: Antiobese activity in high fat diet-fed Sprague-Dawley rat assessed as plasma total cholesterol level at 50 mg/kg, ig administered QD for 30 days (reference value: 1.86+/-0.31 mmol/L); assay type: functional; conditions: route intragastric
Rattus norvegicus [5] = assay: Antiobese activity in high fat diet-fed Sprague-Dawley rat assessed as body fat mass measured per 100 g of body weight at 50 mg/kg, ig administered QD for 30 days (reference value: 6.4+/-1.4 g/100 g); assay type: functional; conditions: route intragastric
Rattus norvegicus [6] = assay: Antiobese activity in high fat diet-fed Sprague-Dawley rat assessed as body weight at 50 mg/kg, ig administered QD for 30 days (reference value: 355+/-36 g); assay type: functional; conditions: route intragastric
[7] = Acute toxicity in ig dosed KM mouse by Bliss method; assay type: organism-based; conditions: in vivo, po
Mus musculus [8] = assay: Hypolipidemic activity in high fat diet-fed C57BL/6 mouse assessed as decrease in plasma triglyceride level at 50 mg/kg, ig administered QD for 4 weeks; assay type: functional, organism-based; parameters: dose 50 mg/kg
3T3-L1 [9] = assay: Inhibition of mouse 3T3L1 cells differentiation after 48 hrs by oil-red-O staining; assay type: functional, cell-based
Mus musculus [10] = assay: Hypolipidemic activity in high fat diet-fed C57BL/6 mouse assessed as decrease in plasma LDL level at 50 mg/kg, ig administered QD for 4 weeks; assay type: functional, organism-based; parameters: dose 50 mg/kg
3T3-L1 [11] = assay: Antiproliferative activity against mouse 3T3L1 cells after 48 hrs by MTT assay; assay type: functional, cell-based
3T3-L1 [12] = assay: Inhibition of mouse 3T3L1 cells differentiation assessed as morphological changes after 48 hrs by oil-red-O staining; assay type: functional, cell-based
Mus musculus [13] = assay: Reduction in plasma insulin level in high fat diet-fed C57BL/6 mouse at 50 mg/kg, ig administered QD for 4 weeks; assay type: functional, organism-based; parameters: dose 50 mg/kg
Mus musculus [14] = assay: Hypolipidemic activity in high fat diet-fed C57BL/6 mouse assessed as decrease in plasma total cholesterol level at 50 mg/kg, ig administered QD for 4 weeks; assay type: functional, organism-based; parameters: dose 50 mg/kg
3T3-L1 [15] = assay: Decrease in triglyceride content in mouse 3T3L1 cells assessed as reduction of lipid droplets after 48 hrs by oil-red-O staining; assay type: functional, cell-based
Mus musculus [16] = assay: Hypolipidemic activity in high fat diet-fed C57BL/6 mouse assessed as increase in plasma HDL level at 50 mg/kg, ig administered QD for 4 weeks; assay type: functional, organism-based; parameters: dose 50 mg/kg
Rattus norvegicus [17] = assay: Antiobese activity in high fat diet-fed Sprague-Dawley rat assessed as body weight at 10 mg/kg, ig administered QD for 30 days (reference value: 355+/-36 g); assay type: functional; conditions: route intragastric
Rattus norvegicus [18] = assay: Antiobese activity in high fat diet-fed Sprague-Dawley rat assessed as body fat mass measured per 100 g of body weight at 10 mg/kg, ig administered QD for 30 days (reference value: 6.4+/-1.4 g/100 g); assay type: functional; conditions: route intragastric
Rattus norvegicus [19] = assay: Antiobese activity in high fat diet-fed Sprague-Dawley rat assessed as plasma triglyceride level at 10 mg/kg, ig administered QD for 30 days (reference value: 1.25+/-0.23 mmol/L); assay type: functional; conditions: route intragastric
Rattus norvegicus [20] = assay: Antiobese activity in high fat diet-fed Sprague-Dawley rat assessed as plasma total cholesterol level at 10 mg/kg, ig administered QD for 30 days (reference value: 1.86+/-0.31 mmol/L); assay type: functional; conditions: route intragastric
Rattus norvegicus [21] = assay: Antiobese activity in high fat diet-fed Sprague-Dawley rat assessed as plasma free fatty acid level at 10 mg/kg, ig administered QD for 30 days (reference value: 785.6+/-175.8 umol/L); assay type: functional; conditions: route intragastric
Mus musculus [22] = assay: Hypolipidemic activity in high fat diet-fed C57BL/6 mouse assessed as decrease in plasma triglyceride level at 200 mg/kg, ig administered QD for 4 weeks; assay type: functional, organism-based; parameters: dose 200 mg/kg
Mus musculus [23] = assay: Hypolipidemic activity in high fat diet-fed C57BL/6 mouse assessed as decrease in plasma LDL level at 200 mg/kg, ig administered QD for 4 weeks; assay type: functional, organism-based; parameters: dose 200 mg/kg
Mus musculus [24] = assay: Hypolipidemic activity in high fat diet-fed C57BL/6 mouse assessed as decrease in plasma total cholesterol level at 200 mg/kg, ig administered QD for 4 weeks; assay type: functional, organism-based; parameters: dose 200 mg/kg
Mus musculus [25] = assay: Hypolipidemic activity in high fat diet-fed C57BL/6 mouse assessed as increase in plasma HDL level at 200 mg/kg, ig administered QD for 4 weeks; assay type: functional, organism-based; parameters: dose 200 mg/kg

SMILES	Activity (3T3-L1 [1])	Activity (Rattus norvegicus [2]) [mmol/L]	Activity (Rattus norvegicus [3]) [µmol/L]	Activity (Rattus norvegicus [4]) [mmol/L]	Activity (Rattus norvegicus [5]) [g/100 g body weight]	Activity (Rattus norvegicus [6]) [g]	inhibition (3T3-L1 [9])	Activity (3T3-L1 [15])	further results
COc1ccc(-c2coc3cc(O)ccc3c2=O)cc1	Active	–	–	–	–	–	–	–	–
CCCCC/C=C\C/C=C\CCCCCCCC(=O)Oc1ccc(-c2coc3cc(OC)ccc3c2=O)cc1	–	1.03	658.8	1.67	5.1	318	–	–	–
CCCCCCCC/C=C\CCCCCCCC(=O)Oc1ccc2c(=O)c(-c3ccc(OC)cc3)coc2c1 [OLEOYL FORMONONETIN]	Active	0.91	606.7	1.31	5	309	Active	Active	LD50 [7]: 2160 mg/kg; Activity (Mus musculus [8]): Active; Activity (Mus musculus [10]): Active; Activity (3T3-L1 [11]): Active; inhibition (3T3-L1 [12]): Active; Activity (Mus musculus [13]): Active; Activity (Mus musculus [14]): Active; Activity (Mus musculus [16]): Active
CCCCCCCCCCCCCCCCCC(=O)Oc1ccc(-c2coc3cc(OC)ccc3c2=O)cc1	–	1.35	738.1	1.71	6	352	–	–	–
CCCCCCCCCCCCCCCCCC(=O)Oc1ccc2c(=O)c(-c3ccc(OC)cc3)coc2c1	inactive	1.19	730.2	1.57	5.4	320	Active	Active	–
CCCCCCCC/C=C\CCCCCCCC(=O)Oc1ccc(-c2coc3cc(OC)ccc3c2=O)cc1	–	1.01	696.3	1.65	5.6	328	–	–	–
CCCCC/C=C\C/C=C\CCCCCCCC(=O)Oc1ccc2c(=O)c(-c3ccc(OC)cc3)coc2c1	Active	0.99	603.8	1.28	4.3	307	Active	Active	–
CC(C)CC(N(C)C)C1(c2ccc(Cl)cc2)CCC1 (stereo unspecified) [SIBUTRAMINE]	–	–	–	–	–	–	–	–	Activity (Rattus norvegicus [17]): 301 g; Activity (Rattus norvegicus [18]): 4.3 g; Activity (Rattus norvegicus [19]): 0.97 mmol/L; Activity (Rattus norvegicus [20]): 1.32 mmol/L; Activity (Rattus norvegicus [21]): 609.6 µmol/L
CCc1ccc(CCOc2ccc(CC3SC(=O)NC3=O)cc2)nc1 (stereo unspecified)	Active	–	–	–	–	–	–	–	–
CCCCCCCCCCCCCCCC(=O)Oc1ccc2c(=O)c(-c3ccc(OC)cc3)coc2c1	inactive	–	–	–	–	–	Active	Active	–
O=C(O[C@H]1[C@H](OC(=O)c2cccnc2)[C@@H](OC(=O)c2cccnc2)[C@H](OC(=O)c2cccnc2)[C@@H](OC(=O)c2cccnc2)[C@H]1OC(=O)c1cccnc1)c1cccnc1	–	–	–	–	–	–	–	–	Activity (Mus musculus [22]): Active; Activity (Mus musculus [23]): Active; Activity (Mus musculus [24]): Active; Activity (Mus musculus [25]): Active
